# Measured values reported in patent US11771709B2, “ALK protein degradation agent and anti-tumor application thereof” (ShanghaiTech University, priority 2017, dated 2023).
# Where two headings read alike, the source gives them in different places.
# Experiments:
# [1] = molecular target: T1, ALK protein in H3122 cells (Homo sapiens, UniProt Q9UM73); experiment: ALK protein stability after stopping translation with cycloheximide in H3122 cells; type: cell-based; conditions: 0.5 uM compound, 1 ug/ml cycloheximide, 12 hours (Ceritinib), 7 hours (SIAIS074017)
# T1 construct: EML4 (Echinoderm microtubule-associated protein-like 4, Q9HC35) fusion partner, variant 1; host or cells: NCI-H3122 lung adenocarcinoma cells; the other entry of the earlier key: EML4 (Q9HC35, Echinoderm microtubule-associated protein-like 4)
# Method: The mechanism of PROTAD compound to degrade its target protein acts through recruiting E3 ubiquitining ligase to the proximity of its target protein, which leads to the target protein being highly ubiquitinzed and eventually being degraded. In order to see the mechanism of ALK PROTAD compounds we developed, we firstly examined the half-life of ALK protein. Because the total level of ALK protein was determined by both the translational activity and protein degradation, we used cyclohexmide to stop protein translation to examine the effect of ALK PROTAD compounds on ALK protein stabilities.
# We listed data for Ceritinib-based ALK PROTAD compounds here as an example, and data for other ALK PROTAD compounds were tested in the same way and similar results were found. […] The difference at the total ALK protein level will reflect the different influence of drugs on protein stability.
# [2] = system: NCI-H3122 (EML4-ALK, V1) cells; experiment: Growth inhibition IC50 in lung cancer H3122 cells (Cell Titer Blue / Cell Titer Glo)
# Method: (§1) SR (NPM-ALK) and NCI-H2228 (EML4-ALK, V3) cells were purchased from ATCC. […] All Cells were cultured in RPMI1640 medium with 10% FBS and Penicillin-Streptomycin in 37° C. incubator with 5% CO2.
# (§2) Cells were seeded at specific density in 96 well plates one day before treatment. […] Viable cells were measured via CCK8 reagent and IC50s were calculated via Prism Graphad. Experiments were repeated at least three times.
# SR (NPM-ALK) cells = experiment: Growth inhibition IC50 in ALCL SR cells (CCK8/WST, 72 hours); type: cell-based; conditions: SR cells, WST
# Method: as §1, §2
# [3] = molecular target: T2, ALK protein in H3122 (EML4-ALK) cells (Homo sapiens, UniProt Q9UM73); experiment: Western blot of ALK protein level (degradation, DC50), ALK phosphorylation and downstream signaling in H3122 cells; type: cell-based; conditions: for DC50: ALK protein degradation in H3122 cells
# T2 construct: EML4 (Echinoderm microtubule-associated protein-like 4, Q9HC35) fusion partner, variant 1; host or cells: NCI-H3122 lung adenocarcinoma cells; the other entry of the earlier key: EML4 (Q9HC35, Echinoderm microtubule-associated protein-like 4)
# [4] = system: ALK positive non-small cell lung cancer; conditions: second line treatment (Shaw et al., 2017); cited from earlier work
# [5] = system: PC9Brc1 (EGFR, exon 19 del+T790M) cells; experiment: Growth inhibition IC50 in EGFR mutant lung cancer PC9Brc1 cells; type: cell-based; conditions: CTB, n ≥ 3, read-out: Half Inhibitory Concentration (IC50) Mean
# Method: as §1, §2
# Ba/F3 (EML4-ALK/C1156Y) = molecular target: T3, Ba/F3 (EML4-ALK/C1156Y) (Homo sapiens, UniProt Q9UM73, C1156Y, cells depend on it); experiment: Growth inhibition IC50 in Ba/F3 cells expressing EML4-ALK C1156Y; type: cell-based
# T3 construct: Q9HC35 (Echinoderm microtubule-associated protein-like 4)
# Method: as §2
# [6] = system: NCI-H2228 (EML4-ALK, V3) cells; experiment: Growth inhibition IC50 in lung adenocarcinoma H2228 cells (WST); type: cell-based; conditions: Homo sapiens, WST (Table 3)
# Source text: Experiments were repeated at least three times.
# Besides above, we also tested the dosage-dependent effects on the growth inhibition in H2228 cells. […] (Table 3).
# [7] = system: U118MG cells (FIG-ROS1 gene fusion); experiment: Growth inhibition IC50 in ROS1 mutant glioblastoma cell line U118MG (72 hours); type: cell-based; conditions: Homo sapiens, U-118-MG, U118MG cells, 72 hours
# [8] = Pharmacokinetics (PK) study in SD rat (IV, IP, PO; LC-MS/MS); type: in vivo; conditions: Sprague-Dawley, serum
# Method: SD rat were used to study the PK of ALK PROTAD compounds. ALK PROTAD compounds SIAIS164008, SIAIS164018, SIAIS164023 and SIAIS151118 were administrated into SD rat via three different routes: IV (Intravenous Injection), IP (Intraperitoneal Injection) and PO ([…]). Blood samples at different sampling time points up to 24 hours post dosing were collected from each animal and analyzed with LC-MS/MS to calculate the PK for each chemical.
# MOLM13 cells (FLT3-ITD) = experiment: Growth inhibition IC50 in FLT3-ITD AML cell line MOLM13; type: cell-based; conditions: Homo sapiens, MOLM-13; MOLM13 cells, n = 2, reagent CTG; read-out: Half Inhibitory Concentration (IC50) Mean
# Method: as §2
# Ba/F3 (EML4-ALK/L1196M) = molecular target: T4, Ba/F3 (EML4-ALK/L1196M) (Homo sapiens, UniProt Q9UM73, L1196M, cells depend on it); experiment: Growth inhibition IC50 in Ba/F3 cells expressing EML4-ALK L1196M; type: cell-based
# T4 construct: Q9HC35 (Echinoderm microtubule-associated protein-like 4)
# Method: as §2
# [9] = system: PC9 (EGFR, exon 19 del) cells; experiment: Growth inhibition IC50 in EGFR mutant lung adenocarcinoma PC9 cells; type: cell-based; conditions: Homo sapiens, PC-9; PC9 cells, CTB, n ≥ 3; read-out: Half Inhibitory Concentration (IC50) Mean
# Method: as §1, §2
# Ba/F3 (EML4-ALK/WT) = molecular target: T5, Ba/F3 (EML4-ALK/WT) (Homo sapiens, UniProt Q9UM73); experiment: Growth inhibition IC50 in Ba/F3 cells expressing EML4-ALK wild type; type: cell-based
# T5 construct: Q9HC35 (Echinoderm microtubule-associated protein-like 4)
# Method: as §2
# [10] = molecular target: T6, ALK protein in SR (NPM-ALK) cells (Homo sapiens, UniProt Q9UM73); experiment: Western blot of ALK protein level (degradation, DC50), ALK phosphorylation and downstream signaling in SR cells; type: cell-based
# T6 construct: NPM (nucleophosmin, NPM1, P06748) fusion partner; host or cells: SR (ALCL) cells; the other entry of the earlier key: NPM1 (P06748, Nucleophosmin)
# [11] = system: SW48 cell line (EGFR G719S); experiment: Growth inhibition IC50 in EGFR G719S colorectal cancer cell line SW48; type: cell-based; conditions: Homo sapiens, CTG, n = 2, read-out: Half Inhibitory Concentration (IC50) Mean
# Method: as §2
# [12] = system: ALK protein in H2228 (EML4-ALK) cells; experiment: Western blot of ALK protein level, ALK phosphorylation and downstream signaling in H2228 cells; type: cell-based
# Method: Cancer cells were seeded in 1 ml RPMI1640 medium in 24-well plate at the density of 3×10^5 or 1.5×10^5 cells/ml. The next day cells were treated with different concentration of drugs for 16 hours. Then cells were washed twice with PBS and lyzed in RIPA lysis buffer with Halt Proteinase and Phosphotase inhibitor. Equal amount of proteins were loaded to run SDS-PAGE gels after denature. The gels were blotted to PVDF membrane. After incubating with first and secondary antibodies, the images were developed using SuperSignal West Pico Chemiluminescent Substrate.
# The effect of Brigtinib based PROTAD molecules on the ALK protein total level were studied by western blot in ALCL SR (NPM-ALK) cell line and lung adenocarcinoma cell line H2228 and H3122 (EML4-ALK).
# The effects of compounds SIAIS164008 and SIAIS164018 of the present invention on the activation of ALK mediated signaling pathways were also studied in SR cells and H2228 cells. […] The overall effect of compound of SIAIS164018 was better than that of SIAIS164008.
# [13] = Ceritinib based ALK PROTAD compounds (Table 5)
smiles,measurement,setting,value
"Cc1cc(Nc2ncc(Cl)c(Nc3ccccc3S(=O)(=O)C(C)C)n2)c(OC(C)C)cc1C1CCNCC1 [Ceritinib, reference compound]",ALK protein level after stop of translation (protein stability),[1],did not show much difference
same,IC50,"[2]; H3122 cells, CTB (Cell Titer Blue)",14 nM
same,IC50,"[2]; H3122 cells, CTG (Cell Titer Glo)",44 nM
same,IC50,SR (NPM-ALK) cells; [13],16 nM
same,ALK protein level / degradation,"[3]; H3122 cells, western blot, up to 500 nM",did not affect ALK protein level
same,increase of progression free survival comparing to second line chemotherapy,[4],about 4 months
"Cc1cc(Nc2ncc(Cl)c(Nc3ccccc3S(=O)(=O)C(C)C)n2)c(OC(C)C)cc1C1CCN(C(=O)CCC(=O)N[C@H](C(=O)N2C[C@H](O)C[C@H]2C(=O)NCc2ccc(-c3scnc3C)cc2)C(C)(C)C)CC1 [SIAIS074017, (2S,4R)-1-((S)-2-(4-(4-(4-((5-chloro-4-((2-(isopropylsulfonyl)phenyl)amino)pyrimidin-2-yl)amino)-5-isopropoxy-2-methylphenyl)piperidin-1-yl)-4-oxobutanamido)-3,3-dimethylbutanoyl)-4-hydroxy-N-(4-(4-methylthiazol-5-yl)benzyl)pyrrolidine-2-carboxamide]",ALK protein level after stop of translation (protein stability),[1],significantly reduced ALK protein level
same,IC50,"[2]; Homo sapiens, NCI-H3122, H3122 cells, CTB (Cell Titer Blue)",45 nM
same,IC50,"[2]; Homo sapiens, NCI-H3122, H3122 cells, CTG (Cell Titer Glo)",41 nM
same,IC50,SR (NPM-ALK) cells; [13],116 nM
same,DC50,[3],100 to 500 nM
"COc1cc(N2CCC(N3CCN(C(=O)CCOCCOCCNc4cccc5c4C(=O)N(C4CCC(=O)NC4=O)C5=O)CC3)CC2)ccc1Nc1ncc(Cl)c(Nc2ccccc2P(C)(C)=O)n1 (stereo not drawn) [SIAIS164008, 4-((2-(2-(3-(4-(1-(4-((5-chloro-4-((2-(dimethylphosphoryl)phenyl)amino)pyrimidin-2-yl)amino)-3-methoxyphenyl)piperidin-4-yl)piperazin-1-yl)-3-oxopropoxy)ethoxy)ethyl)amino)-2-(2,6-dioxopiperidin-3-yl)isoindoline-1,3-dione]",IC50,[5],1830 nM
same,GI50,Ba/F3 (EML4-ALK/C1156Y),243 nM
same,IC50,[6],74 nM
same,IC50,"[7]; n = 2, reagent CTG, read-out: Half Inhibitory Concentration (IC50) Mean",3520 nM
same,IC50,[7]; read-out: IC50,~3520 nM
same,bioavailability,"[8]; IP, 2 mg/kg",93%
same,half-life,"[8]; IP, 2 mg/kg, read-out: serum half-life (converted)",1.54 h
same,Tmax,"[8]; IP, 2 mg/kg, read-out: time to maximal serum peak level (Tmax)",~0.42 h
same,clearance,"[8]; IV, single dose 2 mg/kg, read-out: clearance rate, mean value",~414 mL/min/kg
same,half-life,"[8]; IV, single dose 2 mg/kg, read-out: serum clearance half-life (converted)",~0.85 h
same,bioavailability,"[8]; PO, 10 mg/kg",14.9%
same,Tmax,"[8]; PO, 10 mg/kg, read-out: Tmax",2.75 h
same,half-life,"[8]; PO, 10 mg/kg, read-out: serum half-life (converted)",3.98 h
same,IC50,MOLM13 cells (FLT3-ITD),392 nM
same,GI50,Ba/F3 (EML4-ALK/L1196M),376 nM
same,IC50,[9],265 nM
same,IC50,"SR (NPM-ALK) cells; 72 h, Brigatinib-based PROTAD molecules (Table 3)",3.6 ± 2.1 nM
same,GI50,Ba/F3 (EML4-ALK/WT),115 nM
same,DC50,[10]; ALK protein degradation in SR cells,1 to 10 nM
same,concentration inhibiting the phosphorylation of ALK proteins,"[10]; SR cells, western blot",0.1 nM
same,"downstream signaling pathway (PI3K/AKT, MEK/ERK and STAT3)","[10]; SR cells, western blot",significantly inhibited
same,ALK protein degradation,"[10]; SR cells, western blot, 16 hours, up to 500 nM",effectively degrade ALK proteins at nano mole concentration
same,IC50,[11],15200 nM
same,phosphorylation of ALK protein and activation of PI3K/AKT pathway,[12],inhibited
same,DC50,[3],10 to 50 nM
